In PubChem BioAssay (NCI):
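GI50 = concentration required for 50% inhibition of growth. TGI: total growth inhibition.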

How the values were obtained:
Assay in all cases: growth of human tumour cells (NCI), 384-well format
NCI/ADR-RES ovarian = test system: NCI/ADR-RES ovarian
HL-60(TB) leukemia = test system: HL-60(TB) leukemia
HOP-92 NSCLC = test system: HOP-92 NSCLC
HOP-62 NSCLC = test system: HOP-62 NSCLC
SF-268 CNS = test system: SF-268 CNS
MDA-MB-468 breast = test system: MDA-MB-468 breast
HS 578T breast = test system: HS 578T breast
MDA-MB-231 breast = test system: MDA-MB-231 breast
KM12 colon = test system: KM12 colon
U251 glioblastoma = test system: U251 glioblastoma
UO-31 renal = test system: UO-31 renal
MOLT-4 leukemia = test system: MOLT-4 leukemia
OVCAR-4 ovarian = test system: OVCAR-4 ovarian
HCT-116 colon = test system: HCT-116 colon
A498 renal = test system: A498 renal
SK-MEL-2 melanoma = test system: SK-MEL-2 melanoma
RXF 393 renal = test system: RXF 393 renal
OVCAR-3 ovarian = test system: OVCAR-3 ovarian
OVCAR-8 ovarian = test system: OVCAR-8 ovarian
SW-620 colon = test system: SW-620 colon
DU-145 prostate = test system: DU-145 prostate
HT29 colon = test system: HT29 colon
K-562 leukemia = test system: K-562 leukemia
MDA-MB-435 melanoma = test system: MDA-MB-435 melanoma
LOX IMVI melanoma = test system: LOX IMVI melanoma
SK-MEL-5 melanoma = test system: SK-MEL-5 melanoma
NCI-H23 lung = test system: NCI-H23 lung
NCI-H226 lung = test system: NCI-H226 lung
UACC-257 melanoma = test system: UACC-257 melanoma
COLO 205 colon = test system: COLO 205 colon

Q: Which GI50 (NCI/ADR-RES ovarian) does the source give for C#CC(F)(F)[C@]1(O)CC[C@H]2[C@@H]3CCC4=CC(=O)CCC4=C3[C@@H](c3ccc(C4CC4)cc3)C[C@@]21C here?
A: 12 nM

Q: And the TGI (NCI/ADR-RES ovarian)?
A: 44.8 nM

Q: And the GI50 (HL-60(TB) leukemia)?
A: < 10 nM

Q: And the TGI (HL-60(TB) leukemia)?
A: < 10 nM

Q: And the GI50 (HOP-92 NSCLC)?
A: < 10 nM

Q: What about the TGI (HOP-92 NSCLC) of the same compound?
A: < 10 nM

Q: What about the GI50 (HOP-62 NSCLC) of the same compound?
A: < 10 nM

Q: What about the TGI (HOP-62 NSCLC) of the same compound?
A: 41.1 nM

Q: What about the GI50 (SF-268 CNS) of the same compound?
A: 11.2 nM

Q: And the TGI (SF-268 CNS)?
A: 25.8 nM

Q: And the GI50 (MDA-MB-468 breast)?
A: < 10 nM

Q: What about the TGI (MDA-MB-468 breast) of the same compound?
A: < 10 nM

Q: What about the GI50 (HS 578T breast) of the same compound?
A: 377 nM

Q: What about the TGI (HS 578T breast) of the same compound?
A: 1510 nM

Q: And the GI50 (MDA-MB-231 breast)?
A: < 10 nM

Q: What about the TGI (MDA-MB-231 breast) of the same compound?
A: < 10 nM

Q: What about the GI50 (KM12 colon) of the same compound?
A: 12 nM

Q: What about the TGI (KM12 colon) of the same compound?
A: 25.5 nM

Q: What about the GI50 (U251 glioblastoma) of the same compound?
A: 97.5 nM

Q: What about the TGI (U251 glioblastoma) of the same compound?
A: 444 nM

Q: And the GI50 (UO-31 renal)?
A: < 10 nM

Q: What about the TGI (UO-31 renal) of the same compound?
A: < 10 nM

Q: And the GI50 (MOLT-4 leukemia)?
A: 17.4 nM

Q: What about the TGI (MOLT-4 leukemia) of the same compound?
A: 31.6 nM

Q: What about the GI50 (OVCAR-4 ovarian) of the same compound?
A: < 10 nM

Q: And the TGI (OVCAR-4 ovarian)?
A: < 10 nM

Q: What about the GI50 (HCT-116 colon) of the same compound?
A: 1760 nM

Q: What about the TGI (HCT-116 colon) of the same compound?
A: 3350 nM

Q: And the GI50 (A498 renal)?
A: 13.2 nM

Q: And the TGI (A498 renal)?
A: 26.1 nM

Q: And the GI50 (SK-MEL-2 melanoma)?
A: 64.6 nM

Q: What about the TGI (SK-MEL-2 melanoma) of the same compound?
A: 244 nM

Q: And the GI50 (RXF 393 renal)?
A: < 10 nM

Q: And the TGI (RXF 393 renal)?
A: < 10 nM

Q: What about the GI50 (OVCAR-3 ovarian) of the same compound?
A: < 10 nM

Q: And the TGI (OVCAR-3 ovarian)?
A: < 10 nM

Q: And the GI50 (OVCAR-8 ovarian)?
A: 61.6 nM

Q: And the TGI (OVCAR-8 ovarian)?
A: 934 nM

Q: What about the GI50 (SW-620 colon) of the same compound?
A: 334 nM

Q: What about the TGI (SW-620 colon) of the same compound?
A: 1390 nM

Q: And the GI50 (DU-145 prostate)?
A: 1540 nM

Q: What about the TGI (DU-145 prostate) of the same compound?
A: 3180 nM

Q: And the GI50 (HT29 colon)?
A: 267 nM

Q: What about the TGI (HT29 colon) of the same compound?
A: 1180 nM

Q: And the GI50 (K-562 leukemia)?
A: 111 nM

Q: What about the TGI (K-562 leukemia) of the same compound?
A: 320 nM

Q: What about the GI50 (MDA-MB-435 melanoma) of the same compound?
A: 1250 nM

Q: And the TGI (MDA-MB-435 melanoma)?
A: 3510 nM

Q: And the GI50 (LOX IMVI melanoma)?
A: < 10 nM

Q: And the TGI (LOX IMVI melanoma)?
A: < 10 nM

Q: And the GI50 (SK-MEL-5 melanoma)?
A: 1700 nM

Q: What about the TGI (SK-MEL-5 melanoma) of the same compound?
A: 3100 nM

Q: And the GI50 (NCI-H23 lung)?
A: < 10 nM

Q: What about the TGI (NCI-H23 lung) of the same compound?
A: < 10 nM

Q: What about the GI50 (NCI-H226 lung) of the same compound?
A: 218 nM

Q: What about the TGI (NCI-H226 lung) of the same compound?
A: 2000 nM

Q: And the GI50 (UACC-257 melanoma)?
A: 459 nM

Q: What about the TGI (UACC-257 melanoma) of the same compound?
A: 2110 nM

Q: And the GI50 (COLO 205 colon)?
A: 1320 nM
